# Assay results: ChEMBL document CHEMBL1201862, “PubChem BioAssay data set” (2004)
#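 Assay format: 96-well plates, 48-hour exposure. GI50 is the concentration that inhibits growth by half.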 Activity calls are given as the source filed them. Rule as the data show it: active = GI50 up to about 1.1 µM and inactive = higher.
# How the values were obtained:
# Assay in all cases: DTP human tumour cell line panel, 48 h
# 786-0 = tested on: 786-0
# A498 = tested on: A498
# A549 = tested on: A549
# ACHN = tested on: ACHN
# BT-549 = tested on: BT-549
# CCRF-CEM = tested on: CCRF-CEM
# COLO 205 = tested on: COLO 205
# DU-145 = tested on: DU-145
# EKVX = tested on: EKVX
# HCC 2998 = tested on: HCC 2998
# HCT-116 = tested on: HCT-116
# HCT-15 = tested on: HCT-15
# HL-60 = tested on: HL-60
# HOP-62 = tested on: HOP-62
# HOP-92 = tested on: HOP-92
# HT-29 = tested on: HT-29
# Hs-578T = tested on: Hs-578T
# IGROV-1 = tested on: IGROV-1
# K562 = tested on: K562
# KM12 = tested on: KM12
# LOX IMVI = tested on: LOX IMVI
# M14 = tested on: M14
# MCF7 = tested on: MCF7
# MDA-MB-231 = tested on: MDA-MB-231
# MDA-MB-435 = tested on: MDA-MB-435
# MDA-N = tested on: MDA-N
# MOLT-4 = tested on: MOLT-4
# NCI-H23 = tested on: NCI-H23
# NCI-H460 = tested on: NCI-H460
# NCI-H522 = tested on: NCI-H522
# NCI/ADR-RES = tested on: NCI/ADR-RES
# OVCAR-3 = tested on: OVCAR-3
# OVCAR-4 = tested on: OVCAR-4
# OVCAR-5 = tested on: OVCAR-5
# OVCAR-8 = tested on: OVCAR-8
# PC-3 = tested on: PC-3
# RPMI-8226 = tested on: RPMI-8226
# RXF 393 = tested on: RXF 393
# SF-268 = tested on: SF-268
# SF-295 = tested on: SF-295
# SF-539 = tested on: SF-539
# SK-MEL-2 = tested on: SK-MEL-2
# SK-MEL-5 = tested on: SK-MEL-5
# SK-OV-3 = tested on: SK-OV-3
# SN12C = tested on: SN12C
# SNB-19 = tested on: SNB-19
# SNB-75 = tested on: SNB-75
# SR = tested on: SR
# SW-620 = tested on: SW-620
# T47D = tested on: T47D
# TK-10 = tested on: TK-10
# U-251 = tested on: U-251
# UACC-62 = tested on: UACC-62
# UO-31 = tested on: UO-31
# CAKI-1 = tested on: CAKI-1
# Malme-3M = tested on: Malme-3M
# NCI-H226 = tested on: NCI-H226
# SK-MEL-28 = tested on: SK-MEL-28
# UACC-257 = tested on: UACC-257
smiles,measurement,setting,value
CCCCOC(=O)NC(c1ccccc1)C(O)C(=O)OC1C[C@@]2(O)C(OC(=O)c3ccccc3)C3[C@](C)(C(=O)[C@H](OC(C)=O)C(=C1C)C2(C)C)[C@@H](O)C[C@H]1OC[C@@]31OC(C)=O (some centres not stated),GI50,786-0,0.00875 µM (active)
same,GI50,A498,0.0056 µM (active)
same,GI50,A549,0.00873 µM (active)
same,GI50,ACHN,0.0678 µM (active)
same,GI50,BT-549,0.0148 µM (active)
same,GI50,CCRF-CEM,0.00425 µM (active)
same,GI50,COLO 205,0.00652 µM (active)
same,GI50,DU-145,0.0125 µM (active)
same,GI50,EKVX,0.0741 µM (active)
same,GI50,HCC 2998,0.011 µM (active)
same,GI50,HCT-116,0.00216 µM (active)
same,GI50,HCT-15,0.145 µM
same,GI50,HL-60,0.00345 µM (active)
same,GI50,HOP-62,0.0239 µM (active)
same,GI50,HOP-92,5.7 µM (inactive)
same,GI50,HT-29,0.00228 µM (active)
same,GI50,Hs-578T,0.00191 µM (active)
same,GI50,IGROV-1,0.00405 µM (active)
same,GI50,K562,0.00447 µM (active)
same,GI50,KM12,0.0031 µM (active)
same,GI50,LOX IMVI,0.00427 µM (active)
same,GI50,M14,0.0102 µM (active)
same,GI50,MCF7,0.00248 µM (active)
same,GI50,MDA-MB-231,0.034 µM (active)
same,GI50,MDA-MB-435,0.00224 µM (active)
same,GI50,MDA-N,0.00176 µM (active)
same,GI50,MOLT-4,0.0407 µM (active)
same,GI50,NCI-H23,0.0139 µM (active)
same,GI50,NCI-H460,0.002 µM (active)
same,GI50,NCI-H522,0.00234 µM (active)
same,GI50,NCI/ADR-RES,2 µM (inactive)
same,GI50,OVCAR-3,0.00906 µM (active)
same,GI50,OVCAR-4,2.92 µM (inactive)
same,GI50,OVCAR-5,0.015 µM (active)
same,GI50,OVCAR-8,0.0117 µM (active)
same,GI50,PC-3,0.0171 µM (active)
same,GI50,RPMI-8226,0.00377 µM (active)
same,GI50,RXF 393,0.0156 µM (active)
same,GI50,SF-268,0.0113 µM (active)
same,GI50,SF-295,0.0159 µM (active)
same,GI50,SF-539,0.00305 µM (active)
same,GI50,SK-MEL-2,0.00773 µM (active)
same,GI50,SK-MEL-5,0.0102 µM (active)
same,GI50,SK-OV-3,0.0205 µM (active)
same,GI50,SN12C,0.0157 µM (active)
same,GI50,SNB-19,0.0361 µM (active)
same,GI50,SNB-75,0.0179 µM (active)
same,GI50,SR,0.00499 µM (active)
same,GI50,SW-620,0.00627 µM (active)
same,GI50,T47D,0.175 µM (active)
same,GI50,TK-10,0.101 µM (active)
same,GI50,U-251,0.00807 µM (active)
same,GI50,UACC-62,0.0134 µM (active)
same,GI50,UO-31,0.176 µM (active)
CCC(=O)c1ccc2[nH]c3c(C)c4c(O)cc(C)nc4c(C)c3c2c1,GI50,786-0,> 100 µM (inactive)
same,GI50,A498,> 100 µM (inactive)
same,GI50,A549,> 100 µM (inactive)
same,GI50,ACHN,> 100 µM (inactive)
same,GI50,BT-549,> 100 µM (inactive)
same,GI50,CAKI-1,> 100 µM (inactive)
same,GI50,CCRF-CEM,> 100 µM (inactive)
same,GI50,COLO 205,> 100 µM (inactive)
same,GI50,DU-145,> 100 µM (inactive)
same,GI50,EKVX,> 100 µM (inactive)
same,GI50,HCC 2998,> 100 µM (inactive)
same,GI50,HCT-116,> 100 µM (inactive)
same,GI50,HCT-15,> 100 µM
same,GI50,HL-60,> 100 µM (inactive)
same,GI50,HOP-62,92 µM (inactive)
same,GI50,HOP-92,4.3 µM (inactive)
same,GI50,HT-29,> 100 µM (inactive)
same,GI50,Hs-578T,> 100 µM (inactive)
same,GI50,IGROV-1,> 100 µM (inactive)
same,GI50,KM12,> 100 µM (inactive)
same,GI50,LOX IMVI,> 100 µM (inactive)
same,GI50,M14,> 100 µM (inactive)
same,GI50,MCF7,> 100 µM (inactive)
same,GI50,MDA-MB-231,40.8 µM (inactive)
same,GI50,MDA-MB-435,> 100 µM (inactive)
same,GI50,MDA-N,> 100 µM (inactive)
same,GI50,MOLT-4,> 100 µM (inactive)
same,GI50,Malme-3M,> 100 µM (inactive)
same,GI50,NCI-H226,> 100 µM (inactive)
same,GI50,NCI-H23,> 100 µM (inactive)
same,GI50,NCI-H460,> 100 µM (inactive)
same,GI50,NCI-H522,> 100 µM (inactive)
same,GI50,NCI/ADR-RES,> 100 µM (inactive)
same,GI50,OVCAR-4,> 100 µM (inactive)
same,GI50,OVCAR-5,> 100 µM (inactive)
same,GI50,OVCAR-8,> 100 µM (inactive)
same,GI50,PC-3,> 100 µM (inactive)
same,GI50,RXF 393,> 100 µM (inactive)
same,GI50,SF-268,> 100 µM (inactive)
same,GI50,SF-295,> 100 µM (inactive)
same,GI50,SF-539,> 100 µM (inactive)
same,GI50,SK-MEL-28,> 100 µM (inactive)
same,GI50,SK-MEL-2,> 100 µM (inactive)
same,GI50,SK-MEL-5,> 100 µM (inactive)
same,GI50,SNB-19,> 100 µM (inactive)
same,GI50,SNB-75,> 100 µM (inactive)
same,GI50,SR,40.6 µM (inactive)
same,GI50,SW-620,> 100 µM (inactive)
same,GI50,T47D,> 100 µM (inactive)
same,GI50,TK-10,63.2 µM (inactive)
same,GI50,U-251,42.6 µM (inactive)
same,GI50,UACC-257,> 100 µM (inactive)
same,GI50,UO-31,> 100 µM (inactive)
